Reference: ChEMBL document CHEMBL4130389, “An integrative study to identify novel scaffolds for sphingosine kinase 1 inhibitors” (Eur J Med Chem, 2017)

Molecular target: Sphingosine kinase 1 (Homo sapiens, UniProt Q9NYA1)
Assay: Inhibition of human N-terminal MGHHHHHHHHHHSSG-tagged SphK1 (2 to 384 residues) expressed in Escherichia coli Rosetta-2 by fluorescence assay

Sphingosine kinase 1, sequence (Q9NYA1 whole entry, the tested form may be a part): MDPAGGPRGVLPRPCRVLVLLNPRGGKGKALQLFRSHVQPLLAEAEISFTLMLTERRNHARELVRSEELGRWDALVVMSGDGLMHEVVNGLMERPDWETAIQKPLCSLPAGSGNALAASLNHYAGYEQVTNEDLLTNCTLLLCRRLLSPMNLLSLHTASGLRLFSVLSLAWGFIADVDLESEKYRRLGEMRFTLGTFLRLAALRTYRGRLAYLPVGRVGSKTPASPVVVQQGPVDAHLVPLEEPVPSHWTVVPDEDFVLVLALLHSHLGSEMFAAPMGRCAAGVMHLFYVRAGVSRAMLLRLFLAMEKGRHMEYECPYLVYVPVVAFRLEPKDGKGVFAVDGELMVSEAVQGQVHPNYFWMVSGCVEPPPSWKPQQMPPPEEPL

Row | Compound | IC50 [µM]
1 | CCCCOC(=O)Nc1ccc(C(O)CN2CCN(c3ccncc3)CC2)cc1 (stereo not drawn) | 55
2 | CC1Cc2c(N/N=C/c3ccc(Cl)cc3)ncnc2N(C)c2ccccc21 (stereo not drawn) | 12
3 | CCCCOC(=O)Nc1cccc(C(O)CN2CCN(c3ccncc3)CC2)c1 (stereo not drawn) | 60
